Test results reported in patent US4159334A, “Medicinal preparation with an antiinflammatory, analgesic and antipyretic effect” (priority 1977, dated 1979).
Entries after “also recorded” stand apart in the source; their conditions may differ.

Experiments:
[1] = brufen side effects, source not stated; cited from earlier work
[2] = Aerosol-induced edema of paw in mice (acute test); assay type: in vivo; details: acetylsalicylic acid = 1
Description: Aerosol-induced edema of
paw in mice (acute test)

[3] = Aerosol-induced edema of paw in rats (subacute test), exudative process; assay type: in vivo
Description: Aerosol-induced edeima of
ry paw in rats (subacute test)

[4] = tail burning test in mice; assay type: in vivo; details: for reduction of the reaction to a thermal irritant: mice
Method: (§1) For example, the preparation introduced orally to mice in 10 and 20 mg/kg doses reduced the reaction of the mice to a thermal irritant by 47-75% an hour after administration. Acetylsalicylic acid in 40-300 mg/kg doses causes an effect equal to 37-87%.

[5] = acetic acid "writhing" in mice; assay type: in vivo; details: acetylsalicylic acid = 1
[6] = painful irritation of rat's paw with electric current; assay type: in vivo, rats; details: acetylsalicylic acid = 1
yeast fever in rats = assay type: in vivo
[7] = phenamine hyperthermia in mice; assay type: in vivo
Description: | Phenamine hyperthermia in

[8] = acute toxicity to anti-edematous action ratio (LD50/ED50) in mice; assay type: in vivo; details: oral administration, acetylsalicylic acid = 1
[9] = embryotoxic effects in rats; assay type: in vivo
Description: The preparation was examined for possible embryotoxic effects in rats.

[10] = acute toxicity in mice (oral, intraperitoneal); details: for LD50: mouse, in vivo
[11] = carrageenin and aerosol-induced inflammatory edema, acute tests in mice; assay type: in vivo; details: single oral doses of 5 to 20 mg/kg
[12] = implanted sterile paper balls, granuloma weight in rats; assay type: in vivo; details: 10 and 20 mg/kg
Method: It was established in tests with rats with implanted sterile paper rolled into balls that 10 and 20 mg/kg doses of the preparation reduce the weight of the granulomas by 41-60% and, consequently, produce an inhibiting effect on proliferation processes during inflammation.

[13] = test system: erythrocyte aggregation reaction; assay: membrane-stabilizing effect: erythrocyte aggregation reaction caused by a gelatine solution, in vitro and in vivo; assay type: cell-based
[14] = tests in adrenalectomized animals; assay type: in vivo
[15] = comparison of analgesic ED50 values in three models (tail burning, writhing, electric current); assay type: in vivo; details: acetic acid writhing (mice), electric current (rats)
Method: as §1

acute toxicity in cats = assay type: in vivo
[16] = tolerance on oral administration for 2 to 4 months; assay type: in vivo; details: rats, rabbits and dogs, doses equal to 5% of LD50, 30 and 70 times the human dose
Description: These doses, which are conventionally therapeutic, and equal to 5% of the LD50 for these animals, exceeded 30 and 70 times the dose recommended for humans.

[17] = influence on organ functions and internal organs of animals; assay type: in vivo
[18] = design: species or system rabbits; details: rabbit, in vivo
[19] = test system: cells of the amnionic membrane; assay type: cell-based, human
[20] = clinical trials, therapeutic effect; assay type: in vivo, human patients
Description: (§2) The course of treatment lasted 3 to 4 weeks. In individual cases, the preparation was given once daily for 1 to 5 days as a symptomatic remedy (analgesic and antipyretic).
The main group of the patients given a course of treatment (203 persons), had the following diseases: rheumatism (active phase, 1st-2nd degree, according to A. I. Nesterov's classification) affecting the joints and heart (primary and recurrent rheumocarditis, heart disease of rheumatic etiology with symptoms of cardiac decompensation, of the 1-2A degree)--76 patients; polyarthritis (rheumatoid, exacerbation of chronic infectious, acute infectious-allergic, metabolic)--89 patients; arthrosis, spondylosis, exacerbation of chronic interstitial pneumonia--9 patients.
(§3) The effectiveness of the preparation was assessed by changes in complaints, clinical observation results (temperature, sensation of pain, local manifestations of the inflammatory process) and laboratory examination data (changes patients' peripheral blood picture, albumin fractions, glycoproteins and sialic acids content in blood serum, examination of stools for occult blood before and after treatment, etc.).

[21] = design: species or system human patients; details: human, in vivo
Method: as §2, §3
Clinicians hold the option that tolerance to the preparation is good.

[22] = comparison of activity with acetylsalicylic acid, all experimental studies; assay type: in vivo; details: Table 2
[23] = carrageenin-induced inflammatory edema, comparison with literature data; assay type: in vivo
[24] = design: species or system human patients; details: human, in vivo; remark: listed apart in the source
Description: On the basis of these experimental data, the preparation was used clinically for the treatment of patients with chronic polyarthritis accompanied by gastrointestinal pathology, namely duodenal ulcer in the stage of remission. […] In view of the above, and also in view of the new preparation's general good tolerance, it may be used in patients with accompanying diseases of the organs of the alimentary system, which are contraindications to the use of most of the antiinflammatory remedies.

antibacterial action = details: in contrast to brufen
[25] = in vivo
[26] = in vivo; remark: listed apart in the source
[27] = rheumatic heart and joint disease

For CC(C)Cc1ccc(C(C)C(=O)O)cc1 (centres unmarked) [Brufen], the “abdominal pain and headaches” value [1] is given as 11%, the allergic symptoms [1] is given as 6-8% and the “dyspepsia, gastrointestinal hemorrhages, bronchospasm, thrombocytopenia, mental disorders, exacerbation of cholecystitis” value [1] is given as 11-15%.

With CC(=O)Oc1ccccc1C(=O)O [acetylsalicylic acid, reference compound] the “Relative activity, antiinflammatory, aerosol-induced edema of paw in mice (acute test)” value [2] was 1, the “Relative activity, antiinflammatory, aerosol-induced edema of paw in rats (subacute test)” value ([3]; acetylsalicylic acid = 1) was 1 and the “dose producing a similar effect, relative to the proposed preparation” value ([3]; rats, same test conditions, subacute) was 30 times. The “Relative activity, analgesic, burning tail of mice” value ([4]; acetylsalicylic acid = 1) was 1, the “reduction of the reaction to a thermal irritant” value ([4]; 40-300 mg/kg) was 37-87% and the “Relative activity, analgesic, acetic acid "writhing" in mice” value [5] was 1. For the same molecule, the “Relative activity, analgesic, painful irritation of rat's paw with electric current” value [6] was 1, the “Relative activity, antipyretic, yeast fever in rats” value (yeast fever in rats; acetylsalicylic acid = 1) was 1 and the “Relative activity, antipyretic, phenamine hyperthermia in mice” value ([7]; acetylsalicylic acid = 1) was 1. For the same molecule, the “Relative therapeutic index, acute toxicity to anti-edematous action ratio (LD50/ED50)” value [8] was 1, the embryotoxic effect ([9]; parallel comparative tests) was “produces an embryotoxic effect” and the enteral coefficient ([10]; mice) was -1.8. It also gave an LD50 ([10]; ip) of 1100 mg/kg and an LD50 ([10]; po) of 1910 mg/kg.

With OC(Nc1nccs1)C(Cl)(Cl)Cl (centres unmarked) [proposed preparation, 2,2,2-trichloro-1-(2-thiazolylamino)-ethanol] the “reduction of the symptoms of exudation” value [11] was 17-62%, the “reduction of intensity of the exudative process” value ([3]; rats, 10 mg/kg, within 3 hours after administration) was “reducing its intensity by half” and the “reduction of the weight of the granulomas” value [12] was 41-60%. The “membrane-stabilizing effect (erythrocyte aggregation reaction)” value [13] was “mitigation of the erythrocyte aggregation reaction”, the “contribution of the adrenal system to antiinflammatory effect” value [14] was “andrenal system contributes to the proposed preparation's antiinflammatory effect” and the “reduction of the reaction to a thermal irritant” value ([4]; oral, 10 and 20 mg/kg, an hour after administration) was 47-75%. The analgesic effect [15] was “analgesic effect was proved by three methods”, the “antipyretic effect compared with acetylsalicylic acid” value (yeast fever in rats; rats with yeast fever, 100 mg/kg) was “corresponds to that produced by a 300 mg/kg dose of acetylsalicylic acid” and the phenamine hyperthermia ([7]; mice, same dose (100 mg/kg) followed by phenamine) was “do not manifest the usual hyperthermia”. The picture of intoxication (acute toxicity in cats; acute toxicity, doses in excess of 1 g/kg) was “pronounced inhibition in the animals into a state similar to the prenarcotic state”, the “dose causing symptoms of intoxication and death” value (acute toxicity in cats; cats) was over 1000 mg/kg and the “tolerance on long oral administration” value [16] was “well tolerated”. The “functions of the respiratory and cardiovascular systems” value [17] was “does not affect”, the irritation of tissues [18] was “does not cause irritation” and the “toxic effect on cells of the amnionic membrane” value [19] was “nor does it have any toxic effect”. For the same molecule, the “effect on development of the rat embryos” value ([9]; 55 mg/kg, 12 days from the 9th day of pregnancy) was “does not affect the development of the rat embryos”, the “patients with pronounced therapeutic effect, arthritis” value ([20]; arthritis of different etiology, 89 patients) was 68% and the “patients with similar therapeutic effect” value ([20]; arthrosis, spondylosis and exacerbation of chronic interstitial pneumonia) was 65%. For the same molecule, the “number of patients with pronounced therapeutic effect, arthritis” value ([20]; out of 89) was 61, the “number of patients with pronounced therapeutic effect, rheumatic” value ([20]; out of the 76 patients) was 61 patients and the “drop in temperature, time” value ([20]; patients) was “towards the end of the first week of therapy”. The temperature after course ([20]; patients, 3 to 4 week course) was “completely normalized”, the “general status, physical activity, symptoms of local inflammation” value ([20]; patients, 4th to 9th day from beginning of treatment) was “improvement of the patient's general status, increasing physical activity, abatement of symptoms of local inflammation” and the ECG indices [20, 27] was “ECG indices improved: extrasystole disappeared, symptoms of myocardial anoxia diminished”. The “pain in the region of the heart” value [20, 27] was “abated”, the “paraclinical data: albumin content and gamma-fraction of the blood” value [20, 27] was “a marked tendency towards a higher albumin content and the normalization of the gamma-fraction of the blood” and the “paraclinical data: leukocytes, ESR” value [20, 27] was “disappearance of leukocytes drop of the ESR to normal”. For the same molecule, the neurological status ([20]; rheumatic patients) was “improvement of their neurological status was observed, manifested by diminishing asthenia and irritability”, the “patients with pronounced therapeutic effect, rheumatic” value ([20]; rheumatic patients, 76 patients) was 80% and the contraindications [21] was “No contraindications”. The “influence on peripheral blood composition” value [21] was “no influence on the peripheral blood composition”, the leukocyte count [21] was “diminished to norm in leukocytosis and increased in leukopenia” and the tolerance [21] was “good”. For the same molecule, the “activity compared with acetylsalicylic acid” value [22] was “higher activity than acetylsalicylic acid; also recorded: superior to acetylsalicylic acid in all the main effects”, the “antiinflammatory activity compared with sodium salicylate, phenylbutazone, mephenamic acid (Ponstan) and brufen” value [23] was “higher than that of sodium salicylate, phenylbutazone, mephenamic acid (Ponstan) and brufen” and the “exacerbation of the ulcerous disease” value [24] was “did not cause an exacerbation of the ulcerous disease”. For the same molecule, the “fecal reaction to occult blood” value [24] was “negative in all the patients”, the antibacterial action (antibacterial action) was “moderately pronounced antibacterial action” and the “harmful effect on the gastrointestinal mucosa” value [25] was “no harmful effect on the gastrointestinal mucosa”. For the same molecule, the “discomfort in the epigastral region” value [26] was 1.6 % of cases, the drug dermatitis [26] was 2.4% and the “reversibility of side effects” value [26] was “pass quickly once the preparation is discontinued”. The “absorption from the gastrointestinal tract compared with acetylsalicylic acid” value ([10]; from enteral coefficient) was “better absorption of the preparation from the gastrointestinal tract”, the LD50 ([10]; ip) was 708 mg/kg and the LD50 ([10]; po) was 1050 mg/kg.
